# Measured values as given in PMC3454376, “Salidroside Improves Behavioral and Histological Outcomes and Reduces Apoptosis via PI3K/Akt Signaling after Experimental Traumatic Brain Injury” (PLoS ONE, 2012).
# Tested on: mice subjected to controlled cortical impact injury
# Test: Rotarod motor test after CCI
# Type: in vivo
# Experimental: All animal procedures were approved by the Animal Research Committee at Cheng Hsin General Hospital (Animal permit number CHIACUC 101–08), and all procedures complied with the Guide for the Care and Use of Laboratory Animals published by the US National Institutes of Health (NIH Publication No. 85–23, revised 1996). Animals were housed under a 12-h light/dark cycle and at constant temperature (21–25°C) and humidity (45–50%). They were allowed free access to pellet chow and water. TBI in mice was induced by a CCI injury model as previously described. Briefly, 8-week-old male C57BL/6 mice (weighing 22–25 g) were anesthetized through the use of intraperitoneal injection of sodium pentobarbital (65 mg/kg; Rhone Merieux, Harlow, UK) and placed in a stereotaxic frame. A 5 mm craniotomy was performed over the right parietal cortex, centered on the coronal suture and 0.1 mm lateral to the sagittal suture, and injury to dura was avoided. […] Body temperature was monitored throughout the surgery by a rectal probe; temperature was maintained at 37.0±0.5°C using a heated pad. […]
# Three sets of experiments were performed. […] To determine the optimal dose of salidroside, a pilot study was performed using 2 different doses (20 and 50 mg/kg) administered 10 min after injury, and neurological deficits and tissue damage were evaluated as the main outcomes. […]
smiles,measurement,setting,value
"OC[C@H]1O[C@@H](OCCc2ccc(O)cc2)[C@H](O)[C@@H](O)[C@@H]1O [SALD, salidroside]",rotarod performance versus vehicle group,"20 mg/kg ip 10 min after CCI, whole observation period (28 days), all P<0.05",significantly better performance
same,rotarod outcome versus vehicle group,"50 mg/kg ip 10 min after CCI, only at days 14 and 28, P<0.05",significantly improved
